Results from ChEMBL document CHEMBL4145695, “Histone Deacetylase 6-Selective Inhibitors and the Influence of Capping Groups on Hydroxamate-Zinc Denticity” (J Med Chem, 2018).
pIC50: −log10 of the molar value.

What was measured:
Histone deacetylase 1 = Histone deacetylase 1 (Homo sapiens, UniProt Q13547); assay: Inhibition of human recombinant HDAC1 incubated for 90 mins using fluorogenic substrate ZMAL (Z-Lys(Ac)-AMC) by fluorescence based assay
[1] = molecular target: T1, Protein deacetylase HDAC6 (Homo sapiens, UniProt Q9UBN7); assay: Inhibition of human recombinant HDAC6 incubated for 90 mins using fluorogenic substrate ZMAL (Z-Lys(Ac)-AMC) by fluorescence based assay
T1 sequence (Q9UBN7 whole entry): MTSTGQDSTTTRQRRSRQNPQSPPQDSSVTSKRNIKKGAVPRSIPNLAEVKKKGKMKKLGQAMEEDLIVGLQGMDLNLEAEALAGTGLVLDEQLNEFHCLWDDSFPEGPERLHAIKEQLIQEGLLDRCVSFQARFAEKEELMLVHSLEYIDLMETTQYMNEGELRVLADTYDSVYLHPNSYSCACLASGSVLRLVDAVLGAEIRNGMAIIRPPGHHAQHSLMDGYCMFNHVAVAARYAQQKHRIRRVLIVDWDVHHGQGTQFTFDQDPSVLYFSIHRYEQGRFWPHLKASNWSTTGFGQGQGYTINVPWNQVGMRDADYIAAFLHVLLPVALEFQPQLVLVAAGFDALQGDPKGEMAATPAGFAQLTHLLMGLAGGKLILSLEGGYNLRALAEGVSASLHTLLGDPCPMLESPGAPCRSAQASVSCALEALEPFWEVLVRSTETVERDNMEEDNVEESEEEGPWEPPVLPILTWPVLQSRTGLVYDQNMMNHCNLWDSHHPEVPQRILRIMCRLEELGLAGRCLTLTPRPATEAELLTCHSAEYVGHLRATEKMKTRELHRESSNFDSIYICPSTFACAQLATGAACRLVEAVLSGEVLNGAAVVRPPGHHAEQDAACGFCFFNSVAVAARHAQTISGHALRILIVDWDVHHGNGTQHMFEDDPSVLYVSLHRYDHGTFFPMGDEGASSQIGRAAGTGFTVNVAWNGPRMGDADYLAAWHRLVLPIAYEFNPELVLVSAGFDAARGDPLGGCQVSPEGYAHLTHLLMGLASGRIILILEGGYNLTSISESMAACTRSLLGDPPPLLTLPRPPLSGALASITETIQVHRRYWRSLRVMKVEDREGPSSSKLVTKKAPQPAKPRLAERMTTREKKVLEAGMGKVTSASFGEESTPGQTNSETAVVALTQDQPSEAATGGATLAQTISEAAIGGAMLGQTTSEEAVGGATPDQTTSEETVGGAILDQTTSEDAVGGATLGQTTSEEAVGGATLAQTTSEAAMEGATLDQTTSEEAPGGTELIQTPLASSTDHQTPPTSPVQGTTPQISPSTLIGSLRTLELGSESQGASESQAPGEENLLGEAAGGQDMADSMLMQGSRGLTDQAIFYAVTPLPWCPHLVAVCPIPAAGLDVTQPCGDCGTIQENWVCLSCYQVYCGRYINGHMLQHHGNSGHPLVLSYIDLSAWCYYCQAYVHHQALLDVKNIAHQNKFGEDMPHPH

Homo sapiens = organism: Homo sapiens; assay: Selectivity index, ratio of IC50 for inhibition of human recombinant HDAC1 to IC50 for inhibition of human recombinant HDAC6

Sequence of Histone deacetylase 1 (Q13547 whole entry): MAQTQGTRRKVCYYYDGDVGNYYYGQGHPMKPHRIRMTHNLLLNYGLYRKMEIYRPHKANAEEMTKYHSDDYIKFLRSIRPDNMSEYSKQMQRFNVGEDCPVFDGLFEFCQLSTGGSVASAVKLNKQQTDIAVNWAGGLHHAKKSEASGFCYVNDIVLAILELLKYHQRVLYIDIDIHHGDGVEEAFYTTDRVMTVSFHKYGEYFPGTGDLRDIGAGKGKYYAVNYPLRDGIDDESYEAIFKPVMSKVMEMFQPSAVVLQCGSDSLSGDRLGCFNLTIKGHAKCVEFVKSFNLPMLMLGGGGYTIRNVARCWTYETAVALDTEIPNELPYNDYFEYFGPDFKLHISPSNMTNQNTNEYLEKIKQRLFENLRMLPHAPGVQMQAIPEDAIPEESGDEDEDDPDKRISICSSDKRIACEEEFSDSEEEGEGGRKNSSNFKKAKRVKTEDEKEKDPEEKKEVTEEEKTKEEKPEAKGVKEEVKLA

Row | Structure (SMILES) | pIC50 (Histone deacetylase 1) | pIC50 [1] | Ratio IC50 (Homo sapiens)
1 | CN(C)c1ccc(C(=O)N(CC(=O)NCc2ccccc2)Cc2ccc(C(=O)NO)cc2)cc1 | 8.10 | 7.85 | 0.6
2 | Cc1cc(C)cc(C(=O)N(CC(=O)NC2CCCCC2)Cc2ccc(C(=O)NO)cc2)c1 | 6.57 | 7.96 | 25
3 | CN(Cc1ccc(C(=O)NO)cc1F)CC12CC3CC(CC(C3)C1)C2 | < 3.00 |  | 
